{"source": "patent US7235534B2", "about": "“Antisense strategy to modulate estrogen receptor response (ER α and/or ER β )” (Institut de Cardiologie de Montreal, priority 2001, dated 2007)", "key": {"[1]": {"conditions": "local delivery upon porcine coronary angioplasty; cited from earlier work"}, "p42/44 MAPK": {"system": "p42/44 MAPK", "assay": "Western blot of p42/44 MAPK phosphorylation in PSMC", "format": "cell-based, porcine", "protocol": "Confluent PAEC and PSMC were starved for 7 hours in DMEM and antibiotics. Culture medium was removed, and cells were rinsed twice with ice-cold DMEM. PSMC were incubated on ice in DMEM with or without 17βE (10^−8M) for 30 min, incubated at 37° C. for 5, 10, 15 and 30 min, then brought back on ice. Cell were then rinsed with cold DMEM, incubated on ice in DMEM, bovine serum albumin (1 mg/ml), PDGF-BB (10 ng/ml) for 30 min, incubated at 37° C. for 5 min, and then brought back on ice. PAEC were incubated on ice in DMEM with or without 17βE (10^−7M) for 30 min, then incubated at 37° C. for 5, 10, 15 and 30 min and brought back on ice. […] Total proteins were prepared by the addition of 500 μl of lysis buffer containing phenylmethylsulfonyl fluoride 1 mM, leupeptin 10 μg/ml, aprotinin 30 μg/ml, and NaVO3 1 mM (Sigma). Plates were incubated at 4° C. for 30 min and scraped, and the protein concentration was determined with a Bio-Rad protein kit (Bio-Rad, Hercules, Calif.). Same protein quantity for each cell type and condition were dissolved in Laemmli's buffer, boiled for 5 min in reducing conditions, separated by a 10% gradient SDS-PAGE (Protean II kit; Bio-Rad), and transblotted onto a 0.45-μm polyvinylidene difluoride membranes (Millipore Corp., Bedford, Mass.). The membranes were blocked in 5% Blotto-TTBS (5% nonfat dry milk; Bio-Rad), 0.05% Tween 20, 0.15 M NaCl, 25 mM Tris-HCl, pH 7.5) for 1 h at room temperature with gentle agitation and incubated overnight at 4° C. in 0.5% Blotto-TTBS with the addition of an anti-phospho p42/44 MAPK or an anti-phospho p38 MAPK rabbit polyclonal antiserums (α-pp42/44; dilution of 1:10 000, and α-pp38; dilution 1:5000, New England BioLabs, Beverly, Mass.). Membranes were washed with TTBS, and incubated at room temperature with an anti-rabbit IgG antibody coupled to horseradish peroxidase (dilution 1:10 000–1:20 000, Santa Cruz Biotechnology, Santa Cruz, Calif.) in 0.5% Blotto-TTBS for 30 min. […] Kaleidoscope molecular weight and SDS-plyacrylamide gel electrophoresis broad range marker proteins (Bio-Rad) were used as standards for SDS-plyacrylamide gel electrophoresis. Digital image densitometry (PDI Bioscience, Aurora, ON) was performed on x-ray film to determine relative percentages of p42/44 and p38 MAPK phosphorylation.\nConfluent PAEC and PSMC were preteated with or without antisense sequences as described above for Western Blot analysis. Cells were rinsed twice with ice-cold DMEM. PSMC and PAEC were stimulated with or without 17βE (10^−8 mol/L) as previously described (Geraldes P). […] Same quantity of protein was separated by a 10% gradient SDS-PAGE (Protean II kit; Bio-Rad), and transblotted onto a 0.45-μm polyvinylidene difluoride membranes (Millipore Corp.). […]"}, "[2]": {"system": "Porcine aortic endothelial cells (PAEC)", "assay": "Chemotactic assay on PAEC (modified Boyden chamber)", "format": "cell-based", "protocol": "Cell migration was evaluated using a modified Boyden 48-well microchamber kit (NeuroProbe, Cabin John, MD.). Near confluent EC and PSMC were rinsed with DMEM and trypsinized. Cells were resuspended in DMEM, 5% FBS, and antibiotics, and a cell count was obtained. […] ER antagonists were added 5 minutes before 17βE. Cells were harvested by trypsinization and resuspended in DMEM, 1% FBS, and antibiotics at a concentration of 5×10^5 cells/ml. […] The two sections of the system were separated by a porous polycarbonate filter (5-μm pores), pre-treated with a gelatine solution (1.5 mg/ml), and assembled. Five hours post incubation at 37° C., the nonmigrated cells were scraped with a plastic policeman, and the migrated cells were stained using a Quick-Diff solution. The filter was then mounted on a glass slide, and migrated cells were counted using a microscope adapted to a video camera to obtain a computer-digitized image.\nCell migration was evaluated using a modified Boyden 48-well microchamber kit (NeuroProbe, Cabin John, MD.). Near confluent PAEC and PSMC were rinsed with DMEM and trypsinized. Cells were resuspended in DMEM, 5% FBS, and antibiotics, and a cell count was obtained. PAEC and PSMC were seeded at 2.5×10^5 cells/well of 6-well tissue culture plates; stimulated for 24 hours in DMEM, 5% FBS, and antibiotics with or without antisense oligomers (10^−6 mol/L) and starved for 48 hours in DMEM, 0.1% FBS, and antibiotics with or without antisense oligomers (10^−6 mol/L daily) with or without 17βE (10^−8 mol/L). Cells were harvested by trypsinization and resuspended in DMEM, 1% FBS, and antibiotics at a concentration of 5×10^5 cells/mL. Fifty μL of this cell suspension with or without antisense oligomers (10^−6 mol/L) treated with or without 17βE (10^−8 mol/L) was added in the higher-chamber of the modified Boyden chamber apparatus, and the lower chamber was filled with DMEM, 1% FBS, antibiotics plus the desired concentration of agonist either 17βE (10^−8 mol/L) or platelet-derived growth factor-BB (PDGF-BB). The 2 sections of the system were separated by a porous polycarbonate filter (5-μm pores size), pretreated with a gelatine solution (1.5 mg/mL), and assembled. Five hours postincubation at 37° C., the non-migrated cells were scraped with a plastic policeman, and the migrated cells were stained using a Quick-Diff solution (Shandon Inc). The filter was then mounted on a glass slide, and migrated cells were counted using a microscope adapted to a video camera to obtain a computer-digitized image."}}}
{"compound": "C[C@]12CC[C@@H]3c4ccc(O)cc4CC[C@H]3[C@@H]1CC[C@@H]2O", "note": "[17βE, 17-beta-estradiol]", "values": [{"measurement": "reduction of the degree of restenosis", "setting": "[1]", "value": "up to 50%"}, {"measurement": "time of maximum inhibition of PDGF-BB-induced p42/44 MAPK phosphorylation", "setting": "p42/44 MAPK; 17βE 10^−8M pretreatment, PDGF-BB 5 minutes", "value": 30, "unit": "min"}, {"measurement": "reversal of PDGF-BB-increased p42/44 MAPK phosphorylation", "setting": "p42/44 MAPK; 17βE 10^−8 mol/L 30 minutes, Example 2", "value": "reversed"}, {"measurement": "reduction of PDGF-BB induced phosphorylation of p42/44 MAPK", "setting": "p42/44 MAPK; 17βE for 30 min", "value": 100, "unit": "%"}, {"measurement": "change in basal phosphorylation of p42/44 MAPK", "setting": "p42/44 MAPK; substance alone, data not shown", "value": "did not observe any change"}, {"measurement": "stimulation of PAEC migration as compared to bFGF (10 ng/ml) alone", "setting": "[2]; 17βE 10^−8M combined with bFGF", "value": 121, "unit": "%"}, {"measurement": "induction of PAEC migration as compared to DMEM 1%", "setting": "[2]; 17βE 10^−8 mol/L, 5 hours", "value": 4.63, "unit": "fold"}]}
